PubChem BioAssay AID248 (DTP/NCI, 2004)
Toxic doses and inconclusive results are not listed. Rule as the data show it: active = T/C of 150% or more; inactive = T/C below 125%.

Test system: L1210 leukemia ip in BDF1 mice, survival T/C
Test: NCI In Vivo Anticancer Drug Screen. Data for tumor model L1210 Leukemia (intraperitoneal) in B6D2F1 (BDF1) mice
Conditions: endpoint: mean survival time, higher = longer survival
Method in brief: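 Antitumor effect is assessed in tumor-bearing animals. Survival in the compound arm is compared with a vehicle-dosed control arm and expressed as their quotient.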

[1] = dose: 100.0 mg/kg/injection, schedule: Q04DX003 (ip), vehicle: saline with Tween-80
[2] = dose: 200.0 mg/kg/injection, schedule: Q04DX003 (ip), vehicle: saline with Tween-80
[3] = dose: 400.0 mg/kg/injection, schedule: Q04DX003 (ip), vehicle: saline with Tween-80
[4] = dose: 100.0 mg/kg/injection, schedule: Q01DX009 (ip), vehicle: saline
[5] = dose: 100.0 mg/kg/injection, schedule: Q04DX003 (ip), vehicle: saline
[6] = dose: 200.0 mg/kg/injection, schedule: Q01DX009 (ip), vehicle: saline
[7] = dose: 200.0 mg/kg/injection, schedule: Q04DX003 (ip), vehicle: saline
[8] = dose: 400.0 mg/kg/injection, schedule: Q01DX009 (ip), vehicle: saline
[9] = dose: 400.0 mg/kg/injection, schedule: Q04DX003 (ip), vehicle: saline
[10] = dose: 100.0 mg/kg/injection, schedule: Q01DX009 (ip), vehicle: saline with Tween-80
[11] = dose: 100.0 mg/kg/injection, schedule: Q04DX003 (ip), vehicle: Klucel (hydroxypropylcellulose) (HPC)
[12] = dose: 200.0 mg/kg/injection, schedule: Q01DX009 (ip), vehicle: saline with Tween-80
[13] = dose: 200.0 mg/kg/injection, schedule: Q04DX003 (ip), vehicle: Klucel (hydroxypropylcellulose) (HPC)
[14] = dose: 400.0 mg/kg/injection, schedule: Q01DX009 (ip), vehicle: saline with Tween-80
[15] = dose: 400.0 mg/kg/injection, schedule: Q04DX003 (ip), vehicle: Klucel (hydroxypropylcellulose) (HPC)
[16] = dose: 12.5 mg/kg/injection, schedule: Q04DX003 (ip), vehicle: saline

Measured: T/C

CC(=O)Oc1cc2c[n+](C)c3c4cc(OC(C)=O)c(OC(C)=O)cc4ccc3c2cc1OC(C)=O
inactive: dose: 20.0 mg/kg/injection, schedule: Q01DX009 (ip), vehicle: saline 101 % of control | dose: 40.0 mg/kg/injection, schedule: Q01DX009 (ip), vehicle: saline 109 % of control | dose: 80.0 mg/kg/injection, schedule: Q01DX009 (ip), vehicle: saline 104 % of control | dose: 120.0 mg/kg/injection, schedule: Q01DX009 (ip), vehicle: saline 91 % of control

C/C(Cl)=C/CC1=C(O)c2ccccc2C(=O)C1=O
inactive: dose: 25.0 mg/kg/injection, schedule: Q01DX001 (ip), vehicle: water 104 % of control | dose: 50.0 mg/kg/injection, schedule: Q01DX001 (ip), vehicle: water 101 % of control | dose: 75.0 mg/kg/injection, schedule: Q01DX001 (ip), vehicle: water 97 % of control

Nc1cccc2scnc12
inactive: [1] 90 % of control | [2] 95 % of control | [3] 90 % of control

COc1cc(C(=O)C[n+]2ccccc2)ccc1O
inactive: [1] 93 % of control | [2] 93 % of control

COC(=O)C1C2CC(=O)C(C2)C1C(=O)OC (stereo unspecified)
inactive: [4] 96 % of control | [1] 98 % of control | [5] 100 % of control | [6] 105 % of control | [2] 86 % of control | [7] 100 % of control | [8] 99 % of control | [3] 91 % of control | [9] 96 % of control

COC1OC2COc3ccccc3OC2C2C1N2C(N)=O (stereo unspecified)
inactive: dose: 100.0 mg/kg/injection, schedule: Q04DX002 (ip), vehicle: Klucel (hydroxypropylcellulose) (HPC) 104 % of control | dose: 200.0 mg/kg/injection, schedule: Q04DX002 (ip), vehicle: Klucel (hydroxypropylcellulose) (HPC) 96 % of control | dose: 400.0 mg/kg/injection, schedule: Q04DX002 (ip), vehicle: Klucel (hydroxypropylcellulose) (HPC) 100 % of control

CN(/N=N/c1nc[nH]c1C(N)=O)C(C)(C)C
inactive: dose: 12.5 mg/kg/injection, schedule: Q01DX009 (ip), vehicle: saline with Tween-80 103 % of control | dose: 12.5 mg/kg/injection, schedule: Q04DX009 (ip), vehicle: saline with Tween-80 98 % of control | dose: 25.0 mg/kg/injection, schedule: Q01DX009 (ip), vehicle: saline with Tween-80 93 % of control | dose: 25.0 mg/kg/injection, schedule: Q04DX003 (ip), vehicle: Klucel (hydroxypropylcellulose) (HPC) 100 % of control | dose: 25.0 mg/kg/injection, schedule: Q04DX009 (ip), vehicle: saline with Tween-80 103 % of control | dose: 50.0 mg/kg/injection, schedule: Q01DX009 (ip), vehicle: saline with Tween-80 101 % of control | dose: 50.0 mg/kg/injection, schedule: Q04DX003 (ip), vehicle: Klucel (hydroxypropylcellulose) (HPC) 103 % of control | dose: 50.0 mg/kg/injection, schedule: Q04DX009 (ip), vehicle: saline with Tween-80 103 % of control | dose: 100.0 mg/kg/injection, schedule: Q01DX009 (ip), vehicle: Klucel (hydroxypropylcellulose) (HPC) 97 % of control | [10] 103 % of control | [11] 102 % of control | dose: 100.0 mg/kg/injection, schedule: Q04DX009 (ip), vehicle: saline with Tween-80 103 % of control | dose: 200.0 mg/kg/injection, schedule: Q01DX009 (ip), vehicle: Klucel (hydroxypropylcellulose) (HPC) 96 % of control | [12] 103 % of control | [13] 111 % of control | dose: 200.0 mg/kg/injection, schedule: Q04DX009 (ip), vehicle: saline with Tween-80 101 % of control | dose: 400.0 mg/kg/injection, schedule: Q01DX009 (ip), vehicle: Klucel (hydroxypropylcellulose) (HPC) 97 % of control | [14] 97 % of control | [15] 105 % of control | dose: 400.0 mg/kg/injection, schedule: Q04DX009 (ip), vehicle: saline with Tween-80 101 % of control

Nc1[nH]c(=O)cc(O)c1N
inactive: [16] 108 % of control | dose: 25.0 mg/kg/injection, schedule: Q04DX003 (ip), vehicle: saline 105 % of control | [5] 98 % of control

CCN(CCCl)c1ccc(/C=C/C2=[N+](C)c3ccccc3C2(C)C)c(C)c1
inactive: dose: 0.78 mg/kg/injection, schedule: Q01DX009 (ip), vehicle: saline 106 % of control | dose: 1.56 mg/kg/injection, schedule: Q01DX009 (ip), vehicle: saline 97 % of control | dose: 3.13 mg/kg/injection, schedule: Q01DX009 (ip), vehicle: saline 112 % of control | dose: 6.25 mg/kg/injection, schedule: Q04DX003 (ip), vehicle: saline 96 % of control | [16] 86 % of control

O=[N+]([O-])c1cc(C=Nc2ccccc2)ccc1Cl
inactive: [4] 97 % of control | [11] 94 % of control | [6] 108 % of control | [13] 100 % of control | [8] 103 % of control | [15] 97 % of control

Cc1cccc(Cl)c1OCC(O)COc1c(C)cccc1Cl
inactive: dose: 100.0 mg/kg/injection, schedule: Q04DX002 (ip), vehicle: saline with Tween-80 92 % of control | dose: 200.0 mg/kg/injection, schedule: Q04DX002 (ip), vehicle: saline with Tween-80 95 % of control | dose: 400.0 mg/kg/injection, schedule: Q04DX002 (ip), vehicle: saline with Tween-80 95 % of control

Cc1nccc(=O)[nH]1
inactive: [4] 99 % of control | [5] 106 % of control | [6] 99 % of control | [7] 106 % of control | [9] 92 % of control

Clc1ccc(NP(Br)(c2ccccc2)(c2ccccc2)c2ccccc2)cc1
inactive: dose: 75.0 mg/kg/injection, schedule: Q01DX001 (ip), vehicle: other 107 % of control | dose: 150.0 mg/kg/injection, schedule: Q01DX001 (ip), vehicle: other 104 % of control | dose: 300.0 mg/kg/injection, schedule: Q01DX001 (ip), vehicle: other 101 % of control

CC(C)(C)NC(=O)C1C2CCC1C2Cl (stereo unspecified)
inactive: dose: 75.0 mg/kg/injection, schedule: Q01DX001 (ip), vehicle: saline 96 % of control | dose: 150.0 mg/kg/injection, schedule: Q01DX001 (ip), vehicle: saline 92 % of control | dose: 300.0 mg/kg/injection, schedule: Q01DX001 (ip), vehicle: saline 90 % of control

CC1=CP(=O)(c2ccccc2)CC1 (stereo unspecified)
inactive: dose: 100.0 mg/kg/injection, schedule: Q01DX001 (ip), vehicle: saline 102 % of control | dose: 200.0 mg/kg/injection, schedule: Q01DX001 (ip), vehicle: saline 102 % of control | dose: 400.0 mg/kg/injection, schedule: Q01DX001 (ip), vehicle: saline 105 % of control

CCOC(=O)c1cnc(SC)nc1Sc1ccc(Cl)cc1
inactive: [10] 96 % of control | [1] 96 % of control | [12] 94 % of control | [2] 96 % of control | [14] 98 % of control | [3] 94 % of control
